Test results published in patent publication US12497663B2, “Method of monitoring treatment” (LDN Pharma Limited, priority 2019, dated 2025).

System: CD3+ cells
Assay: Gene expression in CD3+ cells from CD14-ve PBMCs cultured with naltrexone (Illumina biochips)
Type: cell-based, human
Settings: 4 h
Description: The RNA was then extracted from the cells using Trizol then isopropanol. The expression of the genes was measured using Illumina platform with biochips surveying the total human genome. […] The ratio of treated:untreated was calculated and the 25% change from untreated considered relevant.

[1] = ratio treated:untreated, 10 nM naltrexone
[2] = ratio treated:untreated, 10 uM naltrexone

SMILES: O=C1CC[C@@]2(O)[C@H]3Cc4ccc(O)c5c4[C@@]2(CCN3CC2CC2)[C@H]1O5 [NTX, morphinan-6-one,17-(cyclopropylmethyl)-4,5-epoxy-3,14-dihydroxy-(5a)]
- ACTB N/U-score (10 uM naltrexone): o (no change)
- ALDH4A1 N/U-score (10 uM naltrexone): o (no change)
- ASAP1 N/U-score (10 uM naltrexone): o (no change)
- BCLAF1 N/U-score (10 uM naltrexone): o (no change)
- BIRC3 N/U-score (10 uM naltrexone): o (no change)
- CASZ1 N/U-score (10 uM naltrexone): o (no change)
- CDC42SE2 N/U-score (10 uM naltrexone): o (no change)
- CDKN2AIP N/U-score (10 uM naltrexone): o (no change)
- DRAP1 N/U-score (10 uM naltrexone): D (reduction)
- DYNLL2 N/U-score (10 uM naltrexone): o (no change)
- EIF2S3 N/U-score (10 uM naltrexone): o (no change)
- EIF3E N/U-score (10 uM naltrexone): o (no change)
- EIF3M N/U-score (10 uM naltrexone): o (no change)
- EIF4B N/U-score (10 uM naltrexone): o (no change)
- EZR N/U-score (10 uM naltrexone): o (no change)
- FRG1 N/U-score (10 uM naltrexone): o (no change)
- H3F3A N/U-score (10 uM naltrexone): o (no change)
- HIST1H4C N/U-score (10 uM naltrexone): o (no change)
- HPCAL1 N/U-score (10 uM naltrexone): o (no change)
- ITGB2 N/U-score (10 uM naltrexone): o (no change)
- KCTD6 N/U-score (10 uM naltrexone): o (no change)
- LSM5 N/U-score (10 uM naltrexone): o (no change)
- MAP4K1 N/U-score (10 uM naltrexone): D (reduction)
- MORF4L1 N/U-score (10 uM naltrexone): o (no change)
- MTF1 N/U-score (10 uM naltrexone): o (no change)
- MYLK N/U-score (10 uM naltrexone): o (no change)
- NUCB1 N/U-score (10 uM naltrexone): o (no change)
- OR10A6 N/U-score (10 uM naltrexone): o (no change)
- PAH N/U-score (10 uM naltrexone): o (no change)
- PDCD4 N/U-score (10 uM naltrexone): o (no change)
- PECI N/U-score (10 uM naltrexone): o (no change)
- PRPF8 N/U-score (10 uM naltrexone): o (no change)
- PSME2 N/U-score (10 uM naltrexone): o (no change)
- PVRL2 N/U-score (10 uM naltrexone): o (no change)
- RASAL3 N/U-score (10 uM naltrexone): D (reduction)
- S100A6 N/U-score (10 uM naltrexone): D (reduction)
- SH3BGRL3 N/U-score (10 uM naltrexone): o (no change)
- SPOCK2 N/U-score (10 uM naltrexone): o (no change)
- WDR75 N/U-score (10 uM naltrexone): o (no change)
- YWHAZ N/U-score (10 uM naltrexone): D (reduction)
- ACTB LDN/UN [1]: 1.560
- ALDH4A1 LDN/UN [1]: 1.691
- ASAP1 LDN/UN [1]: 0.701
- BCLAF1 LDN/UN [1]: 0.653
- BIRC3 LDN/UN [1]: 0.703
- CASZ1 LDN/UN [1]: 1.775
- CDC42SE2 LDN/UN [1]: 0.590
- CDKN2AIP LDN/UN [1]: 0.702
- DRAP1 LDN/UN [1]: 1.253
- DYNLL2 LDN/UN [1]: 0.702
- EIF2S3 LDN/UN [1]: 0.702
- EIF3E LDN/UN [1]: 0.647
- EIF3M LDN/UN [1]: 0.613
- EIF4B LDN/UN [1]: 1.576
- EZR LDN/UN [1]: 1.563
- FRG1 LDN/UN [1]: 0.614
- H3F3A LDN/UN [1]: 0.632
- HIST1H4C LDN/UN [1]: 0.667
- HPCAL1 LDN/UN [1]: 1.515
- ITGB2 LDN/UN [1]: 1.528
- KCTD6 LDN/UN [1]: 0.700
- LSM5 LDN/UN [1]: 0.639
- MAP4K1 LDN/UN [1]: 1.294
- MORF4L1 LDN/UN [1]: 0.698
- MTF1 LDN/UN [1]: 0.676
- MYLK LDN/UN [1]: 1.659
- NUCB1 LDN/UN [1]: 1.483
- OR10A6 LDN/UN [1]: 1.570
- PAH LDN/UN [1]: 1.687
- PDCD4 LDN/UN [1]: 0.672
- PECI LDN/UN [1]: 0.675
- PRPF8 LDN/UN [1]: 1.543
- PSME2 LDN/UN [1]: 0.700
- PVRL2 LDN/UN [1]: 1.483
- RASAL3 LDN/UN [1]: 1.365
- S100A6 LDN/UN [1]: 1.397
- SH3BGRL3 LDN/UN [1]: 1.479
- SPOCK2 LDN/UN [1]: 1.487
- WDR75 LDN/UN [1]: 0.705
- YWHAZ LDN/UN [1]: 1.287
- ACTB NTX/UN [2]: 1.241
- ALDH4A1 NTX/UN [2]: 1.184
- ASAP1 NTX/UN [2]: 0.826
- BCLAF1 NTX/UN [2]: 0.800
- BIRC3 NTX/UN [2]: 0.918
- CASZ1 NTX/UN [2]: 1.130
- CDC42SE2 NTX/UN [2]: 0.796
- CDKN2AIP NTX/UN [2]: 0.766
- DRAP1 NTX/UN [2]: 0.723
- DYNLL2 NTX/UN [2]: 0.865
- EIF2S3 NTX/UN [2]: 0.756
- EIF3E NTX/UN [2]: 0.910
- EIF3M NTX/UN [2]: 0.757
- EIF4B NTX/UN [2]: 1.123
- EZR NTX/UN [2]: 1.079
- FRG1 NTX/UN [2]: 0.773
- H3F3A NTX/UN [2]: 0.758
- HIST1H4C NTX/UN [2]: 0.836
- HPCAL1 NTX/UN [2]: 0.849
- ITGB2 NTX/UN [2]: 0.942
- KCTD6 NTX/UN [2]: 0.774
- LSM5 NTX/UN [2]: 0.839
- MAP4K1 NTX/UN [2]: 0.726
- MORF4L1 NTX/UN [2]: 0.772
- MTF1 NTX/UN [2]: 0.771
- MYLK NTX/UN [2]: 1.241
- NUCB1 NTX/UN [2]: 1.148
- OR10A6 NTX/UN [2]: 1.235
- PAH NTX/UN [2]: 1.183
- PDCD4 NTX/UN [2]: 0.779
- PECI NTX/UN [2]: 1.043
- PRPF8 NTX/UN [2]: 1.174
- PSME2 NTX/UN [2]: 0.877
- PVRL2 NTX/UN [2]: 1.102
- RASAL3 NTX/UN [2]: 0.713
- S100A6 NTX/UN [2]: 0.655
- SH3BGRL3 NTX/UN [2]: 1.224
- SPOCK2 NTX/UN [2]: 1.194
- WDR75 NTX/UN [2]: 0.830
- YWHAZ NTX/UN [2]: 0.736
